target: human DGKζ (Homo sapiens (Human), UniProt Q13574); assay: Human DGKζ kinase activity inhibition assay (ADP-Glo); assay type: biochemical; details: in vitro human DGKζ kinase activity inhibition assay; read-out: IC50
In short: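 Enzyme was C-terminally FLAG-tagged full-length recombinant human DGKζ from baculovirus-infected insect cells. Substrate preparation used octyl-β-D-glucopyranoside in 50 mM MOPS pH 7.4 with sonication; ADP generated was quantified by ADP-Glo luminescence as activity measure.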

Sequence of human DGKζ (Q13574 other isoform, or with tags, fused parts or gaps): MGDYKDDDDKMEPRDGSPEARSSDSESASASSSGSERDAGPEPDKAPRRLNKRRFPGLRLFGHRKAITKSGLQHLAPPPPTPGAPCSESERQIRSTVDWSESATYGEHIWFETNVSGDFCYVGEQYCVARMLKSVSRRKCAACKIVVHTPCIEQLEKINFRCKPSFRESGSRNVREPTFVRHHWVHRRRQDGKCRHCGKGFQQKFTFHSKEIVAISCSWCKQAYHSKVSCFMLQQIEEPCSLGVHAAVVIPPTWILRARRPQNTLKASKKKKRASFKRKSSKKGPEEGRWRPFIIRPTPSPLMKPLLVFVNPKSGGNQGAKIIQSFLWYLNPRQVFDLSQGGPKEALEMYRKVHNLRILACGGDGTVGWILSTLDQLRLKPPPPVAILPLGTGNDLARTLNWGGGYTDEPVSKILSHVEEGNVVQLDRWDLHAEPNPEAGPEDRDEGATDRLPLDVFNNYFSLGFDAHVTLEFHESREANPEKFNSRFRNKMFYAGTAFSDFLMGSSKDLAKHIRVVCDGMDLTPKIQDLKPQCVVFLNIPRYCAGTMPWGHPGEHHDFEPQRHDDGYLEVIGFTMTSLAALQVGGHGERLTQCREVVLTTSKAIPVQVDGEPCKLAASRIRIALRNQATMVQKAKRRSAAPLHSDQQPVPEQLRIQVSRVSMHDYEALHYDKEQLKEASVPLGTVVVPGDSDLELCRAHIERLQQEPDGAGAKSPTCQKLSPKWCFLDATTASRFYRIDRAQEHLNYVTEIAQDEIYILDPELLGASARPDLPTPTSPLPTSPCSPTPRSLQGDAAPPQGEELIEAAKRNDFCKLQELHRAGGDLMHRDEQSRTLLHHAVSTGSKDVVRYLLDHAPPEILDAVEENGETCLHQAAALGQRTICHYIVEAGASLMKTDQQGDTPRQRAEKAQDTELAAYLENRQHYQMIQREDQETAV

IC50 [nM]	SMILES
131	CC(C(N)=O)N(c1ccc(F)cc1)c1nc(N)c(C(=O)c2ccc(OCC(=O)NCCN3CCCCC3)cc2)s1 (racemic) [Example 89, rac-2-(N-[4-amino-5-[4-[2-oxo-2-[2-(1-piperidyl)ethylamino]ethoxy]benzoyl]thiazol-2-yl]-4-fluoro-anilino)propanamide]
701	COCCNC(=O)COc1ccc(C(=O)c2sc(N(c3ccc(F)cc3)C(C)C(N)=O)nc2N)cc1 (racemic) [Example 91, rac-2-(N-(4-amino-5-[4-[2-(2-methoxyethylamino)-2-oxo-ethoxy]benzoyl]thiazol-2-yl]-4-fluoro-anilino)propanamide]
187	C#CCN(C)C(=O)COc1ccc(C(=O)c2sc(N(c3ccc(F)cc3)C(C)C(N)=O)nc2N)cc1 (racemic) [Example 93, rac-2-(N-[4-amino-5-[4-[2-[methyl(prop-2-ynyl)amino]-2-oxo-ethoxy]benzoyl]thiazol-2-yl]-4-fluoro-anilino)propanamide]
25.7	COc1ccccc1CNC(=O)COc1ccc(C(=O)c2sc(N(c3ccc(F)cc3)C(C)C(N)=O)nc2N)cc1 (racemic) [Example 94, rac-2-(N-[4-amino-5-[4-[2-[(2-methoxyphenyl)methylamino]-2-oxo-ethoxy]benzoyl]thiazol-2-yl]-4-fluoro-anilino)propanamide]
31.4	CC(C(N)=O)N(c1ccc(F)cc1)c1nc(N)c(C(=O)c2ccc(OCC(=O)NCc3ccccc3F)cc2)s1 (racemic) [Example 96, rac-2-(N-[4-amino-5-[4-[2-[(2-fluorophenyl)methylamino]-2-oxo-ethoxy]benzoyl]thiazol-2-yl]-4-fluoro-anilino)propanamide]
24.7	CC(C(N)=O)N(c1ccc(F)cc1)c1nc(N)c(C(=O)c2ccc(OCC(=O)NCc3ccc(F)cc3)cc2)s1 (racemic) [Example 97, rac-2-(N-[4-amino-5-[4-[2-[(4-fluorophenyl)methylamino]-2-oxo-ethoxy]benzoyl]thiazol-2-yl]-4-fluoro-anilino)propanamide]
73.5	CC(C(N)=O)N(c1ccc(F)cc1)c1nc(N)c(C(=O)c2ccc(OCC(=O)NCc3nc4ccccc4[nH]3)cc2)s1 (racemic) [Example 98, rac-2-(N-[4-amino-5-[4-[2-(1H-benzimidazol-2-ylmethylamino)-2-oxo-ethoxy]benzoyl]thiazol-2-yl]-4-fluoro-anilino)propanamide]
75.8	CC(C(N)=O)N(c1ccc(F)cc1)c1nc(N)c(C(=O)c2ccc(OCC(=O)NCC(F)(F)F)cc2)s1 (racemic) [Example 99, rac-2-(N-[4-amino-5-[4-[2-oxo-2-(2,2,2-trifluoroethylamino)ethoxy]benzoyl]thiazol-2-yl]-4-fluoro-anilino)propanamide]
329	CC(C(N)=O)N(c1ccc(F)cc1)c1nc(N)c(C(=O)c2ccc(OCC(=O)N(C)C3CCN(C)CC3)cc2)s1 (racemic) [Example 101, rac-2-(N-[4-amino-5-[4-[2-[methyl-(1-methyl-4-piperidyl)amino]-2-oxo-ethoxy]benzoyl]thiazol-2-yl]-4-fluoro-anilino)propanamide]
506	CONC(=O)COc1ccc(C(=O)c2sc(N(c3ccc(F)cc3)C(C)C(N)=O)nc2N)cc1 (racemic) [Example 102, rac-2-(N-[4-amino-5-[4-[2-(methoxyamino)-2-oxo-ethoxy]benzoyl]thiazol-2-yl]-4-fluoro-anilino)propanamide]
41.9	Cc1cc(NC(=O)COc2ccc(C(=O)c3sc(N(c4ccc(F)cc4)C(C)C(N)=O)nc3N)cc2)no1 (racemic) [Example 103, rac-2-(N-[4-amino-5-[4-[2-[(5-methylisoxazol-3-yl)amino]-2-oxo-ethoxy]benzoyl]thiazol-2-yl]-4-fluoro-anilino)propanamide]
234	CCNC(=O)COc1ccc(C(=O)c2sc(N(c3ccc(F)cc3)C(C)C(N)=O)nc2N)cc1 (racemic) [Example 104, rac-2-(N-[4-amino-5-[4-[2-(ethylamino)-2-oxo-ethoxy]benzoyl]thiazol-2-yl]-4-fluoro-anilino)propanamide]
33.3	CC(C(N)=O)N(c1ccc(F)cc1)c1nc(N)c(C(=O)c2ccc(OCC(=O)NC3CCCCC3)cc2)s1 (racemic) [Example 106, rac-2-(N-(4-amino-5-[4-[2-(cyclohexylamino)-2-oxo-ethoxy]benzoyl]thiazol-2-yl]-4-fluoro-anilino)propanamide]
19.4	CC(C(N)=O)N(c1ccc(F)cc1)c1nc(N)c(C(=O)c2ccc(OCC(=O)Nc3ccc4ncccc4c3)cc2)s1 (racemic) [Example 108, rac-2-(N-(4-amino-5-[4-[2-oxo-2-(6-quinolylamino)ethoxy]benzoyl]thiazol-2-yl]-4-fluoro-anilino)propanamide]
51.7	CC(C(N)=O)N(c1ccc(F)cc1)c1nc(N)c(C(=O)c2ccc(OCC(=O)Nc3ccc(C(N)=O)cc3)cc2)s1 (racemic) [Example 109, rac-4-[[2-[4-[4-amino-2-(N-[2-amino-1-methyl-2-oxo-ethyl]-4-fluoro-anilino)thiazole-5-carbonyl]phenoxy]acetyl]amino]benzamide]
334	CCN(C)C(=O)COc1ccc(C(=O)c2sc(N(c3ccc(F)cc3)C(C)C(N)=O)nc2N)cc1 (racemic) [Example 111, rac-2-(N-[4-amino-5-[4-[2-[ethyl(methyl)amino]-2-oxo-ethoxy]benzoyl]thiazol-2-yl]-4-fluoro-anilino)propanamide]
300	Cc1cc(NC(=O)COc2ccc(C(=O)c3sc(N(c4ccc(F)cc4)C(C)C(N)=O)nc3N)cc2)on1 (racemic) [Example 112, rac-2-(N-(4-amino-5-[4-[2-[(3-methylisoxazol-5-yl)amino]-2-oxo-ethoxy]benzoyl]thiazol-2-yl]-4-fluoro-anilino)propanamide]
703	CC(C(N)=O)N(c1ccc(F)cc1)c1nc(N)c(C(=O)c2ccc(OCC(=O)N(C)CCCN(C)C)cc2)s1 (racemic) [Example 113, rac-2-(N-(4-amino-5-[4-[2-[3-(dimethylamino)propyl-methyl-amino]-2-oxo-ethoxy]benzoyl]thiazol-2-yl]-4-fluoro-anilino)propanamide]
658	CC(=O)N1CCN(C(=O)COc2ccc(C(=O)c3sc(N(c4ccc(F)cc4)C(C)C(N)=O)nc3N)cc2)CC1 (racemic) [Example 114, rac-2-(N-[5-[4-[2-(4-acetylpiperazin-1-yl)-2-oxo-ethoxy]benzoyl]-4-amino-thiazol-2-yl]-4-fluoro-anilino)propanamide]
581	CC(C(N)=O)N(c1ccc(F)cc1)c1nc(N)c(C(=O)c2ccc(OCC(=O)NCC(O)CO)cc2)s1 (racemic) [Example 116, 2-(N-[4-amino-5-(4-[2-(2,3-dihydroxypropylamino)-2-oxo-ethoxy]benzoyl]thiazol-2-yl]-4-fluoro-anilino)propanamide]
16.7	CC(C(N)=O)N(c1ccc(F)cc1)c1nc(N)c(C(=O)c2ccc(OCC(=O)NCc3ccccc3Cl)cc2)s1 (racemic) [Example 120, rac-2-(N-[4-amino-5-[4-[2-[(2-chlorophenyl)methylamino]-2-oxo-ethoxy]benzoyl]thiazol-2-yl]-4-fluoro-anilino)propanamide]
9.07	CC(C(N)=O)N(c1ccc(F)cc1)c1nc(N)c(C(=O)c2ccc(OCC(=O)Nc3ccc(F)cc3)cc2)s1 (racemic) [Example 122, rac-2-(N-[4-amino-5-[4-[2-(4-fluoroanilino)-2-oxo-ethoxy]benzoyl]thiazol-2-yl]-4-fluoro-anilino)propanamide]
100	CC(C(N)=O)N(c1ccc(F)cc1)c1nc(N)c(C(=O)c2ccc(OCC(=O)N3CCCCCC3)cc2)s1 (racemic) [Example 123, rac-2-(N-[4-amino-5-[4-[2-(azepan-1-yl)-2-oxo-ethoxy]benzoyl]thiazol-2-yl]-4-fluoro-anilino)propanamide]

SMILES	IC50 [nM]
CC(C(N)=O)N(c1ccc(F)cc1)c1nc(N)c(C(=O)c2ccc(OCC(=O)N3CCC(Cc4ccccc4)CC3)cc2)s1 (racemic) [Example 90, rac-2-(N-[4-amino-5-[4-[2-(4-benzyl-1-piperidyl)-2-oxo-ethoxy]benzoyl]thiazol-2-yl]-4-fluoro-anilino)propanamide]	63.3
CC(C(N)=O)N(c1ccc(F)cc1)c1nc(N)c(C(=O)c2ccc(OCC(=O)Nc3ccc(C#N)cc3)cc2)s1 (racemic) [Example 92, rac-2-(N-[4-amino-5-[4-[2-(4-cyanoanilino)-2-oxo-ethoxy]benzoyl]thiazol-2-yl]-4-fluoro-anilino)propanamide]	16.7
COc1cccc(CNC(=O)COc2ccc(C(=O)c3sc(N(c4ccc(F)cc4)C(C)C(N)=O)nc3N)cc2)c1 (racemic) [Example 95, rac-2-(N-(4-amino-5-[4-[2-[(3-methoxyphenyl)methylamino]-2-oxo-ethoxy]benzoyl]thiazol-2-yl]-4-fluoro-anilino)propanamide]	39
CC(C(N)=O)N(c1ccc(F)cc1)c1nc(N)c(C(=O)c2ccc(OCC(=O)Nc3cccc(C(N)=O)c3)cc2)s1 (racemic) [Example 107, rac-3-[[2-[4-[4-amino-2-(N-[2-amino-1-methyl-2-oxo-ethyl]-4-fluoro-anilino)thiazole-5-carbonyl]phenoxy]acetyl]amino]benzamide]	77.3
COc1ccc(NC(=O)COc2ccc(C(=O)c3sc(N(c4ccc(F)cc4)C(C)C(N)=O)nc3N)cc2)cc1 (racemic) [Example 117, rac-2-(N-[4-amino-5-[4-[2-(4-methoxyanilino)-2-oxo-ethoxy]benzoyl]thiazol-2-yl]-4-fluoro-anilino)propanamide]	14.9
CC(C(N)=O)N(c1ccc(F)cc1)c1nc(N)c(C(=O)c2ccc(OCC(=O)Nc3ccc(Cl)cc3)cc2)s1 (racemic) [Example 119, rac-2-(N-[4-amino-5-[4-[2-(4-chloroanilino)-2-oxo-ethoxy]benzoyl]thiazol-2-yl]-4-fluoro-anilino)propanamide]	4.54
